Patent US20250268921A1, “OPTHALMIC FORMULATIONS AND USES THEREOF” (TelomEYE Pharmaceutical Corporation, priority 2018, published 2025)
Entries after “also recorded” stand apart in the source; their conditions may differ.

Key:
[1] = tested on: telomerase reverse transcriptase (TERT); experiment: TERT immunohistochemistry of eye tissues; assay type: in vivo, rabbit
Source text: This was characterized by weak telomerase activity in the endothelial layer with an expression of limited number of endothelial cells.

[2] = tested on: telomere length in Corneal Endothelial Cells (CEC); experiment: Telomere length of corneal endothelial cells, treated versus untreated eyes; assay type: in vivo, rabbit; conditions: six months treatment
Description: IG. 18 illustrates a graph showing percentage of telomere length increases in treated eyes (L) versus control (untreated eyes, R), with increasing dosages of telomerase activator. […] (Cy3=Fluorescence signal of telomere probe, Hoescht=fluorescence of the nuclei, Average R=Average of the control eye).
To determine the mechanism by which treatment with TAED017 prevents Corneal Endothelial Cell (CEC) attrition, telomere lengths from CECs of both treated and untreated eyes were measured and compared.
We then evaluated whether the observed effect of telomere lengthening in CECs also occurred in other ocular tissues. Rabbit eyes were treated for six months with TAED017, (one eye of each rabbit was treated while the other eye remained untreated, as a control group).

telomerase [3] = biological target: T1, telomerase (Homo sapiens, UniProt O14746); experiment: Telomerase activity of cornea endothelial and epithelial cells; assay type: cell-based
T1 construct: telomerase activity was evaluated in cornea endothelial cell HCEC-B4G12; endogenous in cells; host or cells: HCEC-B4G12 (DSMZ ACC 647)

cornea endothelial cells = experiment: Specular microscopy cornea endothelial cell count, TAED017 eye drops 6 months; assay type: in vivo, rabbit; conditions: for cell count, treatment vs control: 2nd and 5th months
Source text: 16-month-old male New Zealand rabbits were used in the study. […] When determining the starting age of rabbits and the duration of eye drop application (6 months), 16 months was chosen to correspond to adult human age, and the study period of 6 months was modeled as the period in which New Zealand rabbits aged 7.91 years (22.75 days for adult New Zealand rabbits, corresponding to 1 year for human age).
In FIGS. 12-15, data are shown as mean±standard error. The statistical evaluations are based on CD (cornea endothelia cell density) values. All CD values were corrected to the baseline measurement (month 0) of the respective rabbit and this correction was made as a percentage [(CD value/CD baseline value)*100]. GraphPad Prism 8.0.2 software was used for all statistical analyses and visualizations. The treatment of the rabbits at the respective dose was compared between the left (TAED017 treatment) and right (non-treated control) eye, both temporally and time and side dependent. For all analyses, “2-way ANOVA test for repeated measures” was used. For data sets with missing data, this analysis was set as “mixed-effect analysis” by the program. “Tukey” and “sidak” tests were used for posthoc analyses. The p values for these tests are adjusted p values.

[4] = tested on: human corneal endothelial cells; experiment: Morphologic evaluation and cell viability, cornea endothelial cells; assay type: cell-based
Description: In the morphologic evaluation, the cells at different time periods (1 h, 4 h, 24 h) were observed following different concentrations of drug administration.

[5] = tested on: 3D organotypic corneal barrier; experiment: 3D organotypic corneal barrier passage (LC-MS/MS); assay type: in vitro ADME; conditions: repeated drug administration
[6] = tested on: human corneal epithelial cells; experiment: Morphologic evaluation and cell viability, cornea epithelial cells; assay type: cell-based
[7] = Rabbit ocular pharmacokinetic model; assay type: in vivo
Description: At the end of the fifth day, blood, tear, cornea, anterior chamber fluid, iris and lens tissues were collected at 30, 60, 120, 240 and 480 minutes following the last administration of 4 μg/50 μl. […] According to the results of the drug analysis at the 30th minute, the highest drug concentrations of 215.56 ng in the corneal tissue, 4 ng in the anterior chamber and 14.12 ng in the iris were detected individually, proving that the drug passes into the corneal tissue after application to the corneal surface and reaches the intraocular tissues.

[8] = tested on: telomere length in corneal endothelial cells; experiment: Telomere length (TAT analysis) in corneal endothelial cells from treated rabbits; assay type: in vivo, rabbit; conditions: 6 months
Description: Samples were received in paraffin.
The sample is filtered to remove collagen residues. Telomere lengths were assessed using Life Length's.
All measurements were performed in quintuplicate.

telomerase [9] = biological target: T1, telomerase; experiment: TeloTAGGG Telomerase PCR ELISA assay in HCEC-B4G12; assay type: cell-based; conditions: for % Telomerase Activity ± SD: 30 hours
Description: TeloTAGGG™ Telomerase PCR ELISA assay was performed as described by manufacturer (Sigma-Aldrich).

[10] = tested on: corneal endothelial cells; experiment: Corneal endothelial cell density (CD) by specular microscopy, rabbits treated 6 months; assay type: in vivo, rabbit
Description: All experiments were designed and carried out in a randomized, double blind manner using placebos. Rabbits were housed for one week prior to the study, fed on standard laboratory food and allowed free access to water in a room at standard temperature and humidity conditions in a 12-h light/12-h dark cycle.
All analyses were carried out using GraphPad Prism 5.0 (GraphPad Software, San Diego, CA, USA). Differences were considered to be significant at a level of P: : : : 0.001.

corneal endothelium = experiment: Histopathology of corneal layer, treated rabbits; assay type: in vivo, rabbit
Description: Eye tissue was fixed with 4% formaldehyde and embedded in paraffin for the histopathological assessment and processed according to routine light microscope tissue processing methods. 5 μm tissue sections stained with Hematoxylin-Eosin (H&E) were examined and photographed by Leica image analyzing system (Leica, Germany). All specimens were evaluated individually by three histologists who were blinded to the drug type and the treatment times. Histopathology was also performed to evaluate the corneal opacity, neovascularization, inflammatory cell density, vessel size and edema. Moreover, lens structure, scleral, choroidal and macular changes were analyzed by histopathology.

[11] = cornea endothelial and epithelial cells, 48 hours

T1 sequence (O14746 whole entry): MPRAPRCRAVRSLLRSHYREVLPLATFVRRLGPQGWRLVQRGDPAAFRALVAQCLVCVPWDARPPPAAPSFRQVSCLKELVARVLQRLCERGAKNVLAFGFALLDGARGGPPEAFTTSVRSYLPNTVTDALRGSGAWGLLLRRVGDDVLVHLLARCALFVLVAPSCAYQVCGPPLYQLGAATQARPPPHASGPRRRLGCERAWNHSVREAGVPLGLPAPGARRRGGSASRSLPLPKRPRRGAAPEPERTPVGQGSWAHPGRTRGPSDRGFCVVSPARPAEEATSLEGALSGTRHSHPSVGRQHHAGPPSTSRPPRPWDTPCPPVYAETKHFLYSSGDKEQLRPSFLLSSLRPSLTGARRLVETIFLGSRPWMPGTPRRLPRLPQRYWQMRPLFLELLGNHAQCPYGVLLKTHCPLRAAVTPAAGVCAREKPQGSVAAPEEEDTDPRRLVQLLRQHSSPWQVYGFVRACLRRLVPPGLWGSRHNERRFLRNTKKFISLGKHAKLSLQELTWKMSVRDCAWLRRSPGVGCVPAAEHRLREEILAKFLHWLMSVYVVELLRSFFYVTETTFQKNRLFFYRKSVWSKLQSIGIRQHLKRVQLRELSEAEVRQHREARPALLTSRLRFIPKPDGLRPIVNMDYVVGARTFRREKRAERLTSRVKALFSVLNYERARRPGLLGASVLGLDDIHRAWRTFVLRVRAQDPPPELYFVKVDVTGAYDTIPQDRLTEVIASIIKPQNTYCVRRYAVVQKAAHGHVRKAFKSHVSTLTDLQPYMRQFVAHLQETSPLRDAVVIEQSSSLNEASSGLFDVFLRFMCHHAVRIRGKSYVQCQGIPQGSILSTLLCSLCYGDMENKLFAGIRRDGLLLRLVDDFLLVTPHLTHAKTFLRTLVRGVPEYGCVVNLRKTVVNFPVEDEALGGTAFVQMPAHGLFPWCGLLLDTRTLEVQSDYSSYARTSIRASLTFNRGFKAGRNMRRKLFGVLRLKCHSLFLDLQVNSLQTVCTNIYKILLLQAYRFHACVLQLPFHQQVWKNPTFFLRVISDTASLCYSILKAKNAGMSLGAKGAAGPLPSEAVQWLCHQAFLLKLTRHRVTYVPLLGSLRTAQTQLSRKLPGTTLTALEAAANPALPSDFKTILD

Compound: CC(C)(O)[C@@H]1CC[C@](C)([C@H]2[C@@H](O)C[C@@]3(C)[C@@H]4C[C@H](O)[C@H]5C(C)(C)[C@@H](O)CC[C@@]56C[C@@]46CC[C@]23C)O1 [TAED017, Cycloastragenol]
- TERT immunoreactivity in cornea and iris, rank among dose groups ([1]; 80 μg/ml): lowest Tert immunoreactivity; also recorded: lowest levels
- TERT immunostaining in the ciliary processes of iris tissue ([1]; 80 μg/ml): Prominent and dense tert antigen immunostaining
- TERT staining in corneal endothelial cells ([1]; 160 μg and 240 μg/ml): continuous layer staining
- TERT immunostaining in the ciliar processes ([1]; 160 μg/ml and 240 μg/ml): diffuse and very intense immunopositivity
- TERT immunoreactivity in cornea and iris, rank among dose groups ([1]; 240 μg/ml): highest reactivity; also recorded: highest levels
- TERT expression in cornea and iris, treated left eyes vs untreated ([1]; 80-240 μg/ml eye drops): significantly higher expression; also recorded: significantly elevated
- TERT activity in the iris and choroidea vs untreated ([1]; treatment groups): significantly higher
- CEC telomere length, treated vs untreated eyes [2]: significant increase; also recorded: longer than those from untreated eyes
- concentrations at which telomerase activity reached its highest level (telomerase [3]; [11]): 20 μM, 40 μM and 100 μM
- starting concentration of telomerase activity increase (telomerase [3]; [11]): 2 µM
- telomerase activity after 100 μM concentration (telomerase [3]; [11]): no higher telomerase activity
- TAED017 activity, epithelial versus endothelial cells (telomerase [3]; human corneal epithelial cells vs HCEC B4-G12): higher in corneal epithelial cells
- starting concentration of telomerase activity increase (telomerase [3]; printed in brackets after 2 μM): 100 ng/mL
- cell count, difference between months in the treated eye (cornea endothelial cells; 4 μg/50 μl): no significant difference between the times
- cell count, overall comparison treated left vs untreated right eye (cornea endothelial cells; 4 μg/50 μl twice a day, two way ANOVA): no statistically significant difference
- cell count, treatment vs control (cornea endothelial cells; 4 μg/50 μl): no statistically significant difference
- cell count, treatment vs control (cornea endothelial cells; 8 μg/50 μl): no difference
- cell count, overall comparison treated left vs untreated right eye (cornea endothelial cells; 8 μg/50 μl, mixed-effects analysis): statistically significant difference
- cell count, difference between months in the treated eye (cornea endothelial cells; 12 μg/50 μl): statistically significant difference between the 2nd and 6th month
- cell count, treatment vs control (cornea endothelial cells; 12 μg/50 μl): no difference
- cell count, overall comparison treated left vs untreated right eye (cornea endothelial cells; 12 μg/50 μl, mixed-effects analysis): statistically significant difference
- morphologic change ([4]; 40 μM and 80 μM, up to 24 hours): no significant changes
- apoptotic cells in 20× microscope field ([4]; 320 μM, 640 μM and 960 μM, after 1 h and 4 h): 1-5
- morphologic change ([4]; 320 μM, 640 μM and 960 μM, as early as 5 minutes): cell-cell connections were disrupted and the cells became round
- IC50 ([4]; cornea endothelial cells, read-out: IC50 dose (cell viability assays)): 220 µM
- doses that appear safe ([4]; corneal endothelial cells, in vitro): ≤ 80 µM
- cell damage ([4]; doses above 80 μM, prolonged drug exposure): significant apoptosis and lysis
- apoptosis in HCECs ([4]; high concentrations (e.g. 160 μM and 320 μM)): significantly induces apoptosis
- amount crossing the corneal barrier, highest ([5]; 48th hour): 1.35%
- amount crossing the corneal barrier, highest ([5]; 72nd hour): 1.89%
- concentration of first degenerative changes ([6]; after 24 hours): 320 µM
- IC50 ([6]; cornea epithelial cells, read-out: IC50 dose (cell viability assays)): 740 µM
- concentrations without morphological degenerative changes (safe) ([6]; epithelial cells): ≤ 160 μM
- Tmax, all eye tissues ([7]; 4 μg/50 μl twice a day 5 days, after last administration): 30 min
- drug concentration in tears ([7]; 30 and 60 minutes): ≤ 3 ng
- highest drug concentration, anterior chamber ([7]; 30th minute, 4 μg/50 μl): 4 ng
- highest drug concentration, corneal tissue ([7]; 30th minute, 4 μg/50 μl): 215.56 ng
- highest drug concentration, iris ([7]; 30th minute, 4 μg/50 μl): 14.12 ng
- highest level of drug absorbed to the corneal surface ([7]; proportion of applied drug): 5.39%
- proportion of the drug that passed into the eye, iris tissue ([7]; proportion of applied drug): 0.35%

Compound: CC(C)(O)[C@@H]1CC[C@](C)([C@H]2[C@@H](O)C[C@@]3(C)[C@@H]4C[C@H](O)[C@H]5C(C)(C)[C@@H](O)CC[C@@]56C[C@@]46CC[C@]23C)O1 [cycloastragenol, Cycloastragenol]
- 2am Percentile Length ([8]; GROUP B, 25 ng/ml): 6,968 Base Pairs
- Median Length ([8]; GROUP B, 25 ng/ml): 11,431 Base Pairs
- Telomeres <3 Kbp ([8]; GROUP B, 25 ng/ml): 3.7%
- 2am Percentile Length ([8]; GROUP C, 100 ng/ml): 7,374 Base Pairs
- Median Length ([8]; GROUP C, 100 ng/ml): 11,543 Base Pairs
- Telomeres <3 Kbp ([8]; GROUP C, 100 ng/ml): 3.1%
- 2am Percentile Length ([8]; GROUP D, 500 ng/ml): 7,113 Base Pairs
- Median Length ([8]; GROUP D, 500 ng/ml): 11,552 Base Pairs
- Telomeres <3 Kbp ([8]; GROUP D, 500 ng/ml): 3.6%
- % Telomerase Activity ± SD (telomerase [9]; 3.8 ng/ML): 108 ± 5.27%
- % Telomerase Activity ± SD (telomerase [9]; 7.8 ng/ML): 114.42 ± 2.79%
- % Telomerase Activity ± SD (telomerase [9]; 15.6 ng/ML): 148.94 ± 49.54%
- % Telomerase Activity ± SD (telomerase [9]; 125 ng/ML): 43.14 ± 0.24%
- % Telomerase Activity ± SD (telomerase [9]; 250 ng/ML): 46.28 ± 2.02%
- % Telomerase Activity ± SD (telomerase [9]; 500 ng/ML): 54.38 ± 2.78%
- % Telomerase Activity ± SD (telomerase [9]; 10000 ng/ML, placebo (1% DMSO) = 100%): 74.0 ± 10.45%
- telomerase activity compared with negative control (telomerase [9]; 3.8-62.5 ng/ml): higher telomerase activity than negative control
- telomerase activity, times higher than the negative control (telomerase [9]; 62.5-31.25 ng/ml): 7-10 times
- telomerase activity compared with negative control (telomerase [9]; 125-1000 ng/ml): lower than negative control
- concentration giving the highest activity of telomerase (telomerase [9]; HCEC-B4G12): 62.5 ng/mL
- Cell Density (CD) of cornea layer endothelial cells ([10]; Group B, 25 ng/ml, month 0): 2531.00
- Cell Density (CD) of cornea layer endothelial cells ([10]; Group B, 25 ng/ml, month 1): 2612.38
- change in cell density versus month 0 ([10]; Group B, 25 ng/ml, month 1): 3%
- higher cell density than negative control group ([10]; Group B, 25 ng/ml, month 1): about 4%
- higher cell density than placebo group ([10]; Group B, 25 ng/ml, month 1): about 4%
- Cell Density (CD) of cornea layer endothelial cells ([10]; Group B, 25 ng/ml, month 3): 2604.50
- change in cell density versus month 0 ([10]; Group B, 25 ng/ml, month 3): 3%
- higher cell density than negative control group ([10]; Group B, 25 ng/ml, month 3): ~18%
- higher cell density than placebo group ([10]; Group B, 25 ng/ml, month 3): ~18%
- Cell Density (CD) of cornea layer endothelial cells ([10]; Group B, 25 ng/ml, month 6): 2545.88
- change in cell density versus month 0 ([10]; Group B, 25 ng/ml, month 6): 4%
- higher cell density than negative control group ([10]; Group B, 25 ng/ml, month 6): ~19%
- higher cell density than placebo group ([10]; Group B, 25 ng/ml, month 6): ~20%
- Cell Density (CD) of cornea layer endothelial cells ([10]; Group C, 100 ng/ml, month 0): 2689.88
- Cell Density (CD) of cornea layer endothelial cells ([10]; Group C, 100 ng/ml, month 1): 2741.13
- Cell Density (CD) of cornea layer endothelial cells ([10]; Group C, 100 ng/ml, month 3): 2453.88
- Cell Density (CD) of cornea layer endothelial cells ([10]; Group C, 100 ng/ml, month 6): 2472.38
- Cell Density (CD) of cornea layer endothelial cells ([10]; Group D, 500 ng/ml, month 0): 2875.13
- Cell Density (CD) of cornea layer endothelial cells ([10]; Group D, 500 ng/ml, month 1): 2835.38
- Cell Density (CD) of cornea layer endothelial cells ([10]; Group D, 500 ng/ml, month 3): 2498.50
- Cell Density (CD) of cornea layer endothelial cells ([10]; Group D, 500 ng/ml, month 6): 2488.88
- histopathological finding, corneal endothelium (corneal endothelium; Group B, 25 ng/ml, compared to group A): cell losses were observed in very few areas
- histopathological finding, corneal endothelium (corneal endothelium; Group C, 100 ng/ml): configuration and number of cells were found to be close to Group NC
- histopathological finding, corneal endothelium (corneal endothelium; Group D, 500 ng/ml, compared to Group B and Group C): more hypertrophic and place cell losses
- concentration in eye tissues ([7]; zero hour, after 5 days of eye drops, without last administration): below 1 ng
